Data from patent US9695155B2, “Herbicidal substituted pyrimidinyloxy benzene compounds” (E. I. DU PONT DE NEMOURS AND COMPANY, priority 2013, dated 2017).

What was measured:
Experiment in all cases: Test F preemergence
Conditions in all cases: 21 days, scale 0 to 100
[1] = test system: morningglory (pitted morningglory); assay type: in vivo, Ipomoea lacunosa
Source text: (§1) Seeds of plant species selected from bermudagrass (Cynodon dactylon), surinam grass (Brachiaria decumbens), large (Lg) crabgrass (Digitaria sanguinalis), crabgrass, naked (naked crabgrass, Digitaria nuda), foxtail, green (green foxtail, Setaria viridis), johnsongrass (Sorghum halepense), kochia (Kochia scoparia), morningglory (pitted morningglory, Ipomoea lacunosa), nutsedge, purple (purple nutsedge, Cyperus rotundus), ragweed (common ragweed, Ambrosia elatior), mustard, black (black mustard, Brassica nigra), guineagrass (Panicum maximum), dallisgrass (Paspalum dilatatum), barnyardgrass (Echinochloa crus-galli), sandbur (southern sandbur, Cenchrus echinatus), sowthistle (common sowthistle, Sonchus oleraceous), Italian ryegrass (Lolium multiflorum), signalgrass (broadleaf signalgrass, Brachiaria platyphylla), dayflower (Virginia (VA) dayflower, Commelina virginica), bluegrass (annual bluegrass, Poa annua), quackgrass (Elytrigia repens), mallow (common mallow, Malva sylvestris), buckwheat, wild (wild buckwheat, Polygonum convolvulus), leafy spurge (Euphorbia esula), chickweed (common chickweed, Stellaria media), wild poinsettia (Euphorbia heterophylla), and pigweed (Amaranthus retroflexus) were planted into a blend of loam soil and sand and treated preemergence with test chemicals formulated in a non-phytotoxic solvent mixture which included a surfactant.
(§2) Treated plants and controls were maintained in a greenhouse for 21 days, after which time all species were compared to controls and visually evaluated. Plant response ratings, summarized in Table F, are based on a scale of 0 to 100 where 0 is no effect and 100 is complete control. A dash (-) response means no test result.

mallow = assay type: in vivo, Malva sylvestris
Source text: as §1, §2

large (Lg) crabgrass = assay type: in vivo, Digitaria sanguinalis
Source text: as §1, §2

wild poinsettia = assay type: in vivo, Euphorbia heterophylla
Source text: as §1, §2

ragweed = assay type: in vivo, Ambrosia elatior
Source text: as §1, §2

nutsedge, purple = assay type: in vivo, Cyperus rotundus
Source text: as §1, §2

quackgrass = assay type: in vivo, Elytrigia repens
Source text: as §1, §2

In the case of `N#Cc1cccc(Oc2ncc(Cl)cn2)c1-n1cc(C(F)(F)F)cn1` [Compound 58, 3-[(5-chloro-2-pyrimidinyl)oxy]-2-[4-(trifluoromethyl)-1H-pyrazol-1-yl]benzonitrile], the “Plant response rating, Morningglory” value ([1]; 16 g ai/ha) is reported as 100, the “Plant response rating, Morningglory” value ([1]; 31 g ai/ha) is reported as 98 and the “Plant response rating, Morningglory” value ([1]; 62 g ai/ha) is reported as 100. For the same compound, the “Plant response rating, Morningglory” value ([1]; 125 g ai/ha) was 100, the “Plant response rating, Morningglory” value ([1]; 250 g ai/ha) was 100 and the “Plant response rating, Mallow” value (mallow; 16 g ai/ha) was 60. For the same compound, the “Plant response rating, Mallow” value (mallow; 31 g ai/ha) was 100, the “Plant response rating, Mallow” value (mallow; 62 g ai/ha) was 98 and the “Plant response rating, Mallow” value (mallow; 125 g ai/ha) was 100. The “Plant response rating, Mallow” value (mallow; 250 g ai/ha) was 100, the “Plant response rating, Crabgrass, Large” value (large (Lg) crabgrass; 16 g ai/ha) was 100 and the “Plant response rating, Crabgrass, Large” value (large (Lg) crabgrass; 31 g ai/ha) was 100. The “Plant response rating, Crabgrass, Large” value (large (Lg) crabgrass; 62 g ai/ha) was 100, the “Plant response rating, Crabgrass, Large” value (large (Lg) crabgrass; 125 g ai/ha) was 100 and the “Plant response rating, Crabgrass, Large” value (large (Lg) crabgrass; 250 g ai/ha) was 100. For the same compound, the “Plant response rating, Poinsettia, Wild” value (wild poinsettia; 16 g ai/ha) was 25, the “Plant response rating, Poinsettia, Wild” value (wild poinsettia; 31 g ai/ha) was 65 and the “Plant response rating, Poinsettia, Wild” value (wild poinsettia; 62 g ai/ha) was 100. The “Plant response rating, Poinsettia, Wild” value (wild poinsettia; 125 g ai/ha) was 100, the “Plant response rating, Poinsettia, Wild” value (wild poinsettia; 250 g ai/ha) was 100 and the “Plant response rating, Ragweed” value (ragweed; 16 g ai/ha) was 60. For the same compound, the “Plant response rating, Ragweed” value (ragweed; 31 g ai/ha) was 65, the “Plant response rating, Ragweed” value (ragweed; 62 g ai/ha) was 70 and the “Plant response rating, Ragweed” value (ragweed; 125 g ai/ha) was 75. The “Plant response rating, Ragweed” value (ragweed; 250 g ai/ha) was 95, the “Plant response rating, Nutsedge, Purple” value (nutsedge, purple; 16 g ai/ha) was 0 and the “Plant response rating, Nutsedge, Purple” value (nutsedge, purple; 31 g ai/ha) was 60. For the same compound, the “Plant response rating, Nutsedge, Purple” value (nutsedge, purple; 62 g ai/ha) was 40, the “Plant response rating, Nutsedge, Purple” value (nutsedge, purple; 125 g ai/ha) was 70 and the “Plant response rating, Nutsedge, Purple” value (nutsedge, purple; 250 g ai/ha) was 80. The “Plant response rating, Quackgrass” value (quackgrass; 16 g ai/ha) was 50, the “Plant response rating, Quackgrass” value (quackgrass; 31 g ai/ha) was 70 and the “Plant response rating, Quackgrass” value (quackgrass; 62 g ai/ha) was 98. For the same compound, the “Plant response rating, Quackgrass” value (quackgrass; 125 g ai/ha) was 100 and the “Plant response rating, Quackgrass” value (quackgrass; 250 g ai/ha) was 100.
